# In ChEMBL document CHEMBL2062380, “Discovery of a novel pyrrole derivative 1-[5-(2-fluorophenyl)-1-(pyridin-3-ylsulfonyl)-1H-pyrrol-3-yl]-N-methylmethanamine fumarate (TAK-438) as a potassium-competitive acid blocker (P-CAB)” (J Med Chem, 2012):
# Structures can show the parent of a compound that is named as a salt. Active and inactive are the calls of the source. No cut-off for these calls is given here.
# What was measured:
# [1] = Lipophilicity, log D of compound at pH 7.4; type: physicochemical; conditions: buffer
# [2] = Inhibition of swine H+/K+-ATPase after 30 mins by colorimetry; design: species or system Sus scrofa
# Rattus norvegicus [3] = assay: Inhibition of histamine-induced gastric acid secretion in pylorus-ligated Sprague Dawley rat at 1 mg/kg, iv administered 3 mins prior to histamine challenge measured after 3 hrs; type: functional; conditions: Stomach
# Rattus norvegicus [4] = assay: Inhibition of histamine-induced gastric acid secretion in po dosed pylorus-ligated Sprague-Dawley rat measured after 3 hrs post histamine challenge; type: functional, organism-based; conditions: Stomach
# Rattus norvegicus [5] = assay: Complete inhibition of histamine-induced gastric acid secretion in pylorus-ligated Sprague Dawley rat at 4 mg/kg, po measured after 3 hrs post histamine challenge; type: functional, organism-based; design: dose 4 mg/kg; conditions: Stomach
# Canis familiaris [6] = assay: Inhibition histamine-induced gastric acid secretion in Heidenhain-pouch dog at 1 mg/kg, po administered 1 day post histamine challenge measured for 3 consecutive 30 mins time period after compound dosing; type: functional, organism-based; design: dose 1 mg/kg; conditions: Canis lupus familiaris, Stomach
# Canis familiaris [7] = assay: Inhibition histamine-induced gastric acid secretion in Heidenhain-pouch dog at 1 mg/kg, po measured after 2 days; type: functional, organism-based; design: dose 1 mg/kg; conditions: Canis lupus familiaris, Stomach
# Rattus norvegicus [8] = assay: Inhibition of histamine-induced gastric acid secretion in pylorus-ligated Sprague-Dawley rat at 8 mg/kg, po measured after 3 hrs post histamine challenge; type: functional, organism-based; design: dose 8 mg/kg; conditions: Stomach
# Canis familiaris [9] = assay: Inhibition histamine-induced gastric acid secretion in Heidenhain-pouch dog at 1 mg/kg, po administered 1 tp 48 hrs prior histamine challenge measured for 3 consecutive 30 mins time period after compound dosing; type: functional, organism-based; design: dose 1 mg/kg; conditions: Canis lupus familiaris, Stomach
Structure (SMILES),logD [1],IC50 [2] [nM],inhibition in vivo at 1 mg/kg (Rattus norvegicus [3]) [%],other results
CNCc1cc(-c2ccccc2C#N)n(S(=O)(=O)c2cccnc2)c1,-0.2,230,68,
CNCc1cc(-c2ccccc2)n(S(=O)(=O)c2ccc(OC)nc2)c1,1.7,13,95,
CNCc1cc(-c2ccccc2C(F)(F)F)n(S(=O)(=O)c2cccnc2)c1,0.8,75,92,
CNCc1cc(-c2ccccc2)n(S(=O)(=O)c2cccs2)c1,1.2,51,69,
CNCc1cc(-c2ccccc2)n(S(=O)(=O)c2cccnc2)c1,0.7,16,85,
CNCc1cc(-c2ccccc2)n(S(=O)(=O)c2ccc(C)nc2)c1,1,34,83,
CNCc1cc(-c2ccc(F)cc2)n(S(=O)(=O)c2cccnc2)c1,1,46,85,
CNCc1cc(-c2ccccc2F)n(S(=O)(=O)c2cccnc2)c1 [VONOPRAZAN FUMARATE],0.4,19,98,inhibition (Rattus norvegicus [4]): Dose-dependent effect; inhibition (Rattus norvegicus [5]): Active; inhibition (Canis familiaris [6]): Active; inhibition (Canis familiaris [7]): Active
CNCc1cc(-c2cccc(F)c2)n(S(=O)(=O)c2cccnc2)c1,1,20,92,
Cc1c(OCC(F)(F)F)ccnc1C[S+]([O-])c1nc2ccccc2[nH]1 (stereo not drawn),,,,inhibition (Rattus norvegicus [8]): inactive; inhibition (Canis familiaris [9]): Active
CNCc1cc(-c2ccccc2)n(S(=O)(=O)c2cccc(S(C)(=O)=O)c2)c1,,78,,
CNCc1cc(-c2ccccc2C)n(S(=O)(=O)c2cccnc2)c1,1,46,95,
CNCc1cc(-c2ccccc2)n(S(=O)(=O)c2ccc(C#N)nc2)c1,1.4,110,17,
CNCc1cc(-c2ccccc2)n(S(=O)(=O)c2ccccn2)c1,,170,,
CNCc1cc(-c2ccccc2CO)n(S(=O)(=O)c2cccnc2)c1,-0.3,2200,,
CNCc1cc(-c2ccccc2Cl)n(S(=O)(=O)c2cccnc2)c1,0.7,17,97,
CNCc1cc(-c2ccccc2)n(S(=O)(=O)c2cccc(OC)c2)c1,,11,,
CNCc1cc(-c2ccccc2)n(S(=O)(=O)c2ccc(OC)cc2)c1,1.5,30,95,
CNCc1cc(-c2ccccc2)n(S(=O)(=O)c2ccsc2)c1,1.1,16,55,
